Here are results for one compound from publication doi:10.1101/2025.03.14.643404, “A Bivalent Molecular Glue Linking Lysine Acetyltransferases to Oncogene-induced Cell Death” (bioRxiv, 2025).

In data set [1] the test system is B and T cells isolated from primary tonsillar lymphocytes. Put plainly: Viability of primary tonsillar lymphocytes, 72 h. Type of data set: cell-based, human. As to conditions: primary tonsillar lymphocytes of two donors, compared with SUDHL5.
The next data set deals with K422. Put plainly: Cell viability, 7 days compound treatment (Cell Titer-Glo), K422. The note with it: Homo sapiens, 168 h; K422, 7 days; read-out: IC50 of antiproliferation. Type of data set: cell-based. The method, then:
(§1) Fifteen thousand cells were seeded in 100 μl of media per well of a U-bottom 96-well plate and treated with digitally dispensed drugs (Tecan D300e) for the indicated times and doses. After 96 hours, plates were centrifuged for 750 rpm for 3 minutes, and old media was exchanged for 100 μl of fresh media. Drug treatment was then repeated at the indicated doses. 72 hours following media change, cells were transferred to 96 well flat-bottom opaque plates. Viability was measured by adding 25 μL Cell Titer-Glo reagent (Promega G7570) to each well and luminescence was measured (BMG Labtech Pherastar FS). The background luminescence was subtracted, and the signal was normalized to DMSO-treated cells. IC50 measurements on cell lines were calculated using at least three biological replicates by separate cell passages. Fit of dose–response curves to data and statistical analysis was performed using GraphPad PRISM using the four-parameter log(inhibitor) vs response function.

For a further data set, the system named is BBC3/PUMA. Put plainly: Western blot of BBC3/PUMA in SUDHL5. Type of data set: cell-based, human. The note with it: SUDHL5, 48 hours. The method, then:
Cells were plated at 1M/mL and treated with drug at indicated timepoints and doses. Cells were harvested on ice in RIPA buffer (50mM Tris-HCl pH 8, 150mM NaCl, 1% NP-40, 0.1% DOC, 1% SDS, protease inhibitor cocktail (~20 mg/ml pepstatin, aprotinin, and leupeptin), 1mM DTT) and 1:200 benzonase (Sigma E1014) was added and incubated for 20 mins. After 10 min centrifugation at 14,000g and 4 °C, the supernatant was collected and protein concentration was measured by Bradford. SDS-PAGE analysis was carried out in either 4–12% or 12% Bis-Tris PAGE gels (Thermo NW04120 and NW04127). Antibodies used for immunoblots were: BCL6 (1:1000 v:v, Cell Signaling D65C10), p300 (1:250, Santa Cruz F-4 sc-48343), CBP (1:1000, Cell Signaling D6C5), c-MYC (1:1000, Cell Signaling D84C12), Caspase-3 (1:1000, Cell Signaling 9662), GAPDH (1:2000, Santa Cruz 6C5 sc-32233), BBC3/PUMA (1:1000, Cell Signaling E2P7G), FOXO3 (1:1000, Cell Signaling 75D8), H3K27ac (1:1000, abcam ab4729), H2BK20ac (1:1000, Cell Signaling D709W), H3 (1:10,000, Cell Signaling 1B1B2), H2B (1:10,000, Cell Signaling D2H6), p27/CDKN1B (1:1000, Cell Signaling D69C12), and TP53 (1:1000, Santa Cruz DO-1). ImageStudio (Licor) was used for blot imaging and quantification.

The next data set concerns DAUDI. Kind of data set: Cell viability, 7 days compound treatment (Cell Titer-Glo), DAUDI. Type of data set: cell-based. As to conditions: Homo sapiens, 168 h, read-out: IC50 of antiproliferation. The method, then:
as §1

Entries after “also recorded” stand apart in the source; their conditions may differ.

Consider `CNC(=O)COc1cc2cc(Nc3nc(N4CCC(C(=O)N5CCN(CCC(=O)N6CCC(n7nc(N8CCCc9cc(-c%10cnn(C)c%10)c(C(F)F)cc98)c8c7CCN(C(=O)NC)C8)CC6)CC5)CC4)ncc3Cl)cc(OC)c2n(C)c1=O` [TCIP3], for which the “cytotoxicity” value in data set [1] is “substantially reduced cytotoxicity; also recorded: without exhibiting toxicity”. Further, the IC50 stood at 4 nM in the data set with K422 and 6.9 nM in the data set with DAUDI. For the same compound, the PUMA expression increase entry in the data set on BBC3/PUMA is on record as “more than 6 fold”.
